The test system of this assay is BDF1 mice, B16 melanoma ip, median survival T/C. In words: NCI In Vivo Anticancer Drug Screen. Data for tumor model B16 Melanoma (intraperitoneal) in B6D2F1 (BDF1) mice. To be noted: endpoint: median survival time, higher = longer survival. The procedure, abridged:
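Tumor-bearing mice received test compound or vehicle. Survival or tumor size was then measured in both groups. The treated-group figure was divided by the control-group figure.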

Setting [1] is: dose: 12.5 mg/kg/injection, schedule: Q01DX009 (ip), vehicle: saline with Tween-80.
Where [2] appears, read: dose: 12.5 mg/kg/injection, schedule: Q01DX009 (ip), vehicle: saline.
The mark [3] stands for this setting: dose: 25.0 mg/kg/injection, schedule: Q01DX009 (ip), vehicle: saline with Tween-80.
Where [4] appears, read: dose: 25.0 mg/kg/injection, schedule: Q01DX009 (ip), vehicle: saline.
Where [5] appears, read: dose: 50.0 mg/kg/injection, schedule: Q01DX009 (ip), vehicle: saline with Tween-80.
Where [6] appears, read: dose: 50.0 mg/kg/injection, schedule: Q01DX009 (ip), vehicle: saline.
Setting [7] is: dose: 100.0 mg/kg/injection, schedule: Q01DX009 (ip), vehicle: saline.
The mark [8] stands for this setting: dose: 200.0 mg/kg/injection, schedule: Q01DX009 (ip), vehicle: saline.
Where [9] appears, read: dose: 400.0 mg/kg/injection, schedule: Q01DX009 (ip), vehicle: saline.
[10] abbreviates: dose: 100.0 mg/kg/injection, schedule: Q01DX009 (ip), vehicle: Klucel (hydroxypropylcellulose) (HPC).
The mark [11] stands for this setting: dose: 100.0 mg/kg/injection, schedule: Q01DX009 (ip), vehicle: saline with Tween-80.
[12] abbreviates: dose: 200.0 mg/kg/injection, schedule: Q01DX009 (ip), vehicle: saline with Tween-80.
Setting [13] is: dose: 6.25 mg/kg/injection, schedule: Q01DX009 (ip), vehicle: saline with Tween-80.
Where [14] appears, read: dose: 6.25 mg/kg/injection, schedule: Q01DX009 (ip), vehicle: saline.
The mark [15] stands for this setting: dose: 12.5 mg/kg/injection, schedule: Q01DX009 (ip), vehicle: water.
[16] abbreviates: dose: 25.0 mg/kg/injection, schedule: Q01DX009 (ip), vehicle: water.
Setting [17] is: dose: 50.0 mg/kg/injection, schedule: Q01DX009 (ip), vehicle: water.
The mark [18] stands for this setting: dose: 100.0 mg/kg/injection, schedule: Q01DX009 (ip), vehicle: water.

The structures appear in SMILES notation. Values joined by “and” are separate entries in the source; they are usually repeats but may differ in a detail not shown here. Equal values may be shown once. Toxic doses and inconclusive results are not listed.

As for `ClCC[N+]12CC[N+](CCCl)(CC1)C2`, the T/C is, setting by setting: under setting [1], 95 % of control and 100 % of control; under setting [2], 112 % of control and 95 % of control; under setting [3], 104 % of control; under setting [4], 109 % of control and 105 % of control; under setting [5], 110 % of control and 116 % of control; under setting [6], 124 % of control and 101 % of control. Moreover, the T/C reads like this: under setting [7], 101 % of control; under setting [8], 100 % of control; under setting [9], 107 % of control.

On to `COc1ccc2c(c1)C(OC)C1c3c(cc4c(c3-2)OCO4)CCN1C` (stereo unspecified), for which the T/C reads like this: (dose: 1.0 mg/kg/injection, schedule: Q01DX009 (ip), vehicle: acid diluted with saline) 123 % of control; (dose: 2.0 mg/kg/injection, schedule: Q01DX009 (ip), vehicle: acid diluted with saline) 89 % of control.

As to `CC[C@]12CN3CCc4c([nH]c5ccccc45)[C@@](C(=O)OC)(c4cc5c(cc4OC)N(C=O)[C@H]4[C@@](O)(C(=O)OC)[C@H](OC(C)=O)[C@]6(CC)C=CCN7CC[C@]54[C@@H]76)C[C@H](C3)[C@H]1O2`, the T/C (dose: 4.0 mg/kg/injection, schedule: Q01DX011 (ip), vehicle: saline) was 159 % of control.

For the compound `CN(C)C=Nc1ccccc1`, the T/C is 100 % of control under setting [10]; 112 % of control (dose: 200.0 mg/kg/injection, schedule: Q01DX009 (ip), vehicle: Klucel (hydroxypropylcellulose) (HPC)); 109 % of control (dose: 400.0 mg/kg/injection, schedule: Q01DX009 (ip), vehicle: Klucel (hydroxypropylcellulose) (HPC)).

Take `CC(C)(C)OC(=O)NCCCC(NC(=O)OCc1ccccc1)C(=O)O` (stereo unspecified): the T/C was 101 % of control under setting [5]; 96 % of control under setting [11]; 96 % of control under setting [12]; 86 % of control (dose: 400.0 mg/kg/injection, schedule: Q01DX009 (ip), vehicle: saline with Tween-80).

For `COc1cc(C[C@H]2c3cc(OC)c(OC)cc3CCN2C)c(Oc2cc3c(cc2OC)-c2c(OC)c(OC)cc4c2[C@H](C3)N(C)CC4)cc1OC`, the T/C reads like this: (dose: 3.0 mg/kg/injection, schedule: Q01DX009 (ip), vehicle: saline with Tween-80) 93 % of control; under setting [13], 92 % of control and 95 % of control; under setting [1], 88 % of control and 97 % of control and 107 % of control; (dose: 75.0 mg/kg/injection, schedule: Q01DX009 (ip), vehicle: saline with Tween-80) 87 % of control.

On to `C1CC[N-]CC1.C1CC[N-]CC1.C1CC[N-]CC1.[Cl][Rh]([Cl])[Cl]`, for which the T/C runs as follows: (dose: 2.0 mg/kg/injection, schedule: Q01DX009 (ip), vehicle: saline) 93 % of control; (dose: 4.0 mg/kg/injection, schedule: Q01DX009 (ip), vehicle: saline) 99 % of control; under setting [14], 109 % of control; (dose: 6.25 mg/kg/injection, schedule: Q01DX009 (ip), vehicle: suspension in saline) 103 % of control; (dose: 8.0 mg/kg/injection, schedule: Q01DX009 (ip), vehicle: saline) 103 % of control; under setting [1], 98 % of control. Moreover, the T/C is, setting by setting: (dose: 12.5 mg/kg/injection, schedule: Q01DX009 (ip), vehicle: suspension in saline) 103 % of control; (dose: 16.0 mg/kg/injection, schedule: Q01DX009 (ip), vehicle: saline) 104 % of control; under setting [3], 87 % of control; (dose: 25.0 mg/kg/injection, schedule: Q01DX009 (ip), vehicle: suspension in saline) 110 % of control; (dose: 32.0 mg/kg/injection, schedule: Q01DX009 (ip), vehicle: saline) 121 % of control; under setting [5], 93 % of control. The T/C (dose: 50.0 mg/kg/injection, schedule: Q01DX009 (ip), vehicle: suspension in saline) was 110 % of control; the T/C under setting [11] was 94 % of control; the T/C (dose: 100.0 mg/kg/injection, schedule: Q01DX009 (ip), vehicle: suspension in saline) is 115 % of control; the T/C under setting [12] is 100 % of control; the T/C (dose: 200.0 mg/kg/injection, schedule: Q01DX009 (ip), vehicle: suspension in saline) was 112 % of control.

Consider `CN(C)CCOc1ccc2c(c1)C/C(=C/c1ncc([N+](=O)[O-])n1C)C2=O`, for which the T/C reads like this: under setting [13], 109 % of control; under setting [1], 100 % of control; under setting [3], 96 % of control; under setting [5], 99 % of control; under setting [11], 109 % of control.

Consider `O=C1Nc2ccc(Cl)cc2C(c2ccccc2)=NC1O` (stereo unspecified), for which the T/C was 116 % of control under setting [14]; 95 % of control under setting [6]; 95 % of control under setting [7]; 89 % of control under setting [8]; 89 % of control under setting [9].

Turning to `Cc1ccc(Cl)cc1NC(=O)c1ccccc1`, the T/C is 93 % of control (dose: 75.0 mg/kg/injection, schedule: Q01DX009 (ip), vehicle: Klucel (hydroxypropylcellulose) (HPC)); 104 % of control (dose: 150.0 mg/kg/injection, schedule: Q01DX009 (ip), vehicle: Klucel (hydroxypropylcellulose) (HPC)); 105 % of control (dose: 300.0 mg/kg/injection, schedule: Q01DX009 (ip), vehicle: Klucel (hydroxypropylcellulose) (HPC)).

Regarding `CC(C)N(CCCO)C(C)C`, the T/C by setting is: under setting [5], 101 % of control; under setting [11], 97 % of control.

As to `COc1cc2ccc3c[n+](C)ccc3c2cc1OC`, the T/C under setting [15] was 101 % of control, the T/C under setting [16] was 106 % of control, the T/C under setting [17] was 95 % of control and the T/C under setting [18] is 101 % of control.

As for `COC1C(O)C(C)OC(OC2C(Oc3cccc4c(O)c5c(=O)oc6ccc(C)c7c(=O)oc(c34)c5c67)OC(C)C(O)C2O)C1O` (stereo unspecified), the T/C reads like this: (dose: 16.0 mg/kg/injection, schedule: Q04DX003 (ip), vehicle: saline with Tween-80) 107 % of control; under setting [3], 183 % of control; (dose: 32.0 mg/kg/injection, schedule: Q04DX003 (ip), vehicle: saline with Tween-80) 101 % of control; (dose: 50.0 mg/kg/injection, schedule: Q01DX009 (ip), vehicle: carboxymethylcellulose (CMC)) 179 % of control; under setting [5], 199 % of control; (dose: 64.0 mg/kg/injection, schedule: Q04DX003 (ip), vehicle: saline with Tween-80) 122 % of control. In addition, the T/C reads like this: under setting [10], 119 % of control; (dose: 100.0 mg/kg/injection, schedule: Q01DX009 (ip), vehicle: carboxymethylcellulose (CMC)) 206 % of control; under setting [11], 185 % of control; (dose: 128.0 mg/kg/injection, schedule: Q04DX003 (ip), vehicle: saline with Tween-80) 119 % of control.

Take `c1ccc(OP(Oc2ccccc2)c2ccccc2)cc1`: the T/C runs as follows: (dose: 50.0 mg/kg/injection, schedule: Q01DX009 (ip), vehicle: acetone) 113 % of control; (dose: 100.0 mg/kg/injection, schedule: Q01DX009 (ip), vehicle: acetone) 100 % of control; (dose: 200.0 mg/kg/injection, schedule: Q01DX009 (ip), vehicle: acetone) 100 % of control.

Take `COC(=Nc1ccccc1)SSC(C)C`: the T/C reads like this: under setting [13], 113 % of control; under setting [1], 108 % of control; under setting [3], 102 % of control; under setting [5], 100 % of control; under setting [11], 97 % of control.

As to `Cn1c(N)c(N=Nc2ccccc2Cl)c(=O)n(C)c1=O`, the T/C is, setting by setting: under setting [14], 110 % of control; under setting [2], 105 % of control; under setting [4], 104 % of control; under setting [5], 86 % of control; under setting [6], 110 % of control.

Take `Cc1cc([N+](=O)[O-])c(S(N)(=O)=O)c([N+](=O)[O-])c1`: the T/C was 110 % of control (dose: 6.25 mg/kg/injection, schedule: Q01DX009 (ip), vehicle: water); 100 % of control under setting [15]; 101 % of control under setting [16]; 103 % of control under setting [17]; 101 % of control under setting [18].

As to `C#CCOCC(O)CCl` (stereo unspecified), the T/C was 94 % of control under setting [4], 105 % of control under setting [6], 95 % of control under setting [11] and 89 % of control under setting [7].

Consider `CC(N)Cc1ccc(O)cc1` (stereo unspecified), for which the T/C runs as follows: under setting [2], 102 % of control; under setting [4], 110 % of control; under setting [6], 100 % of control; under setting [7], 105 % of control; under setting [8], 100 % of control.

The record behind these values is PubChem BioAssay AID192 (DTP/NCI, 2004).
